Data published in patent US4226879A, “Antibiotic composition” (Kyowa Hakko Kogyo Kabushiki Kaisha, priority 1976, dated 1980).
Counter-ions that a name gives are not always drawn.

System: Eimeria tenella K-2
Experiment: anticoccidial test in chicks (Example 4)
Details: for Caecal lession (numbers of chicks), ++: grade ++ (middle); for Caecal lession (numbers of chicks), +++: grade +++ (heavy)
[1] = 0.025 % in diet, groups of 10 chicks
[2] = 0.0125 % in diet, groups of 10 chicks
[3] = 0.0033 % in diet, groups of 10 chicks
[4] = 0.0066 % in diet, groups of 10 chicks

SMILES | Survival ratio (0.0125 % in diet) [%] | Survival ratio (0.025 % in diet) [%] | Caecal lession (numbers of chicks), ++ [1] | Caecal lession (numbers of chicks), +++ [2] | Caecal lession (numbers of chicks), +++ [1] | Survival ratio (0.0033 % in diet) [%] | Survival ratio (0.0066 % in diet) [%] | Caecal lession (numbers of chicks), + (grade + (light), 0.0066 % in diet, groups of 10 chicks) | Caecal lession (numbers of chicks), ++ [3] | Caecal lession (numbers of chicks), ++ [4] | Caecal lession (numbers of chicks), +++ [3] | Caecal lession (numbers of chicks), +++ [4]
Cc1nc(C)c(Cl)c(O)c1Cl [Clopidol, reference compound] | 50 | 70 | 4 numbers of chicks | 10 numbers of chicks | 6 numbers of chicks |  |  |  |  |  |  | 
N=C(N/N=C/c1ccc(Cl)cc1)N/N=C/c1ccc(Cl)cc1 [Robenidine hydrochloride, reference compound] |  |  |  |  |  | 80 | 100 | 2 numbers of chicks | 2 numbers of chicks | 5 numbers of chicks | 8 numbers of chicks | 3 numbers of chicks
CCCc1ncc(C[n+]2ccccc2C)c(N)n1 [Amprolium hydrochloride, reference compound] | 40 | 70 | 2 numbers of chicks | 10 numbers of chicks | 8 numbers of chicks |  |  |  |  |  |  | 
